Test results from PMC9127750, “Structure-based design of CDC42 effector interaction inhibitors for the treatment of cancer” (Cell reports, 2022).
pIC50: −log10 of the molar value.

What was measured:
Test in all cases: cells
OVK18 = conditions: OVK18, read-out: IC50 ARN22089
Method: (§1) Cancer cell line viability assay was performed using a CellTiterGlo assay. Cells were cultured in their appropriate media and seeded in white multi-well plates. For the assays, cells were incubated with compound at 37°C overnight, and a CellTiterGlo assay was performed to quantify viable cells.

SK-N-SH = conditions: Homo sapiens, read-out: IC50 ARN22089
Method: as §1

MOLM-13 = conditions: Homo sapiens, MOLM-13, read-out: IC50 ARN22089
Method: as §1

PC3 = conditions: Homo sapiens, PC-3, read-out: IC50 ARN22089
Method: as §1

T84 = conditions: Homo sapiens, T84, read-out: IC50 ARN22089
Method: as §1

HT-1080 = conditions: Homo sapiens, HT-1080, read-out: IC50 ARN22089
Method: as §1

MOLT-4 = conditions: Homo sapiens, MOLT-4, read-out: IC50 ARN22089
Method: as §1

J82 = conditions: Homo sapiens, J82, read-out: IC50 ARN22089
Method: as §1

RERF-LC-MS = conditions: read-out: IC50 ARN22089
Method: as §1

NCI-H2286 = conditions: Homo sapiens, NCI-H2286, read-out: IC50 ARN22089
Method: as §1

Hep3B2.1-7 = conditions: read-out: IC50 ARN22089
Method: as §1

HT-29 = conditions: Homo sapiens, HT-29, read-out: IC50 ARN22089
Method: as §1

MKN-45 = conditions: Homo sapiens, MKN-45, read-out: IC50 ARN22089
Method: as §1

KG-1 = conditions: Homo sapiens, KG-1, read-out: IC50 ARN22089
Method: as §1

NCI-H1703 = conditions: Homo sapiens, NCI-H1703, read-out: IC50 ARN22089
Method: as §1

EFO-27 = conditions: Homo sapiens, EFO-27, read-out: IC50 ARN22089
Method: as §1

LN229 = conditions: Homo sapiens, LN-229, read-out: IC50 ARN22089
Method: as §1

RL95-2 = conditions: Homo sapiens, RL95-2, read-out: IC50 ARN22089
Method: as §1

EFM-192A = conditions: read-out: IC50 ARN22089
Method: as §1

NCI-H2009 = conditions: Homo sapiens, NCI-H2009, read-out: IC50 ARN22089
Method: as §1

SK-N-FI = conditions: Homo sapiens, read-out: IC50 ARN22089
Method: as §1

SCLC-21H = conditions: Homo sapiens, read-out: IC50 ARN22089
Method: as §1

MDAMB435 = conditions: Homo sapiens, MDA-MB-435, read-out: IC50 ARN22089
Method: as §1

COR-L279 = conditions: Homo sapiens, COR-L279, read-out: IC50 ARN22089
Method: as §1

NCI-H441 = conditions: Homo sapiens, NCI-H441, read-out: IC50 ARN22089
Method: as §1

NCI-H1563 = conditions: Homo sapiens, NCI-H1563, read-out: IC50 ARN22089
Method: as §1

DV90 = conditions: Homo sapiens, DV-90, read-out: IC50 ARN22089
Method: as §1

NCI-H838 = conditions: Homo sapiens, NCI-H838, read-out: IC50 ARN22089
Method: as §1

P31/FUJ = conditions: Homo sapiens, read-out: IC50 ARN22089
Method: as §1

HCC38 = conditions: Homo sapiens, HCC38, read-out: IC50 ARN22089
Method: as §1

OV56 = conditions: OV56, read-out: IC50 ARN22089
Method: as §1

HEC-1-A = conditions: Homo sapiens, read-out: IC50 ARN22089
Method: as §1

M07e = conditions: M-07e, read-out: IC50 ARN22089
Method: as §1

HCT-15 = conditions: Homo sapiens, HCT-15, read-out: IC50 ARN22089
Method: as §1

H460 = conditions: Homo sapiens, NCI-H460, read-out: IC50 ARN22089
Method: as §1

U-937 = conditions: Homo sapiens, U-937, read-out: IC50 ARN22089
Method: as §1

RERF-LC-Ad2 = conditions: RERF-LC-Ad2, read-out: IC50 ARN22089
Method: as §1

AsPC-1 = conditions: Homo sapiens, ASPC1, read-out: IC50 ARN22089
Method: as §1

U2OS = conditions: Homo sapiens, read-out: IC50 ARN22089
Method: as §1

BEN = conditions: read-out: IC50 ARN22089
Method: as §1

MCAS = conditions: read-out: IC50 ARN22089
Method: as §1

NCI-H1573 = conditions: Homo sapiens, NCI-H1573, read-out: IC50 ARN22089
Method: as §1

HCT116 = conditions: Homo sapiens, HCT-116, read-out: IC50 ARN22089
Method: as §1

Work on `CN(C)c1cccc(Nc2cc(-c3ccccc3)nc(C3CCNCC3)n2)c1` [ARN22089, N1,N1-dimethyl-N3-(6-phenyl-2-(piperidin-4-yl)pyrimidin-4-yl)benzene-1,3-diamine] yielded a pIC50 (OVK18) of 5.12, a pIC50 (SK-N-SH) of 5.09 and a pIC50 (MOLM-13) of 4.89. For the same compound, the pIC50 (PC3) was 5.04, the pIC50 (T84) was 5.28 and the pIC50 (HT-1080) was 4.96. It also gave a pIC50 (MOLT-4) of 4.96, a pIC50 (J82) of 5.23 and a pIC50 (RERF-LC-MS) of 4.92. For the same compound, the pIC50 (NCI-H2286) was 4.85, the pIC50 (Hep3B2.1-7) was 5.44 and the pIC50 (HT-29) was 5.46. For the same compound, the pIC50 (MKN-45) was 5.39, the pIC50 (KG-1) was 4.85 and the pIC50 (NCI-H1703) was 4.43. The pIC50 (EFO-27) was 4.92, the pIC50 (LN229) was 5.11 and the pIC50 (RL95-2) was 5.24. The pIC50 (EFM-192A) was 4.85, the pIC50 (NCI-H2009) was 4.82 and the pIC50 (SK-N-FI) was 4.96. For the same compound, the pIC50 (SCLC-21H) was 5.27, the pIC50 (MDAMB435) was 5.00 and the pIC50 (COR-L279) was 4.92. It also gave a pIC50 (NCI-H441) of 4.92, a pIC50 (NCI-H1563) of 4.80 and a pIC50 (DV90) of 4.54. It also gave a pIC50 (NCI-H838) of 4.92, a pIC50 (P31/FUJ) of 4.85 and a pIC50 (HCC38) of 5.00. For the same compound, the pIC50 (OV56) was 4.89, the pIC50 (HEC-1-A) was 5.02 and the pIC50 (M07e) was 4.96. It also gave a pIC50 (HCT-15) of 5.06, a pIC50 (H460) of 5.07 and a pIC50 (U-937) of 5.46. It also gave a pIC50 (RERF-LC-Ad2) of 5.04, a pIC50 (AsPC-1) of 5.00 and a pIC50 (U2OS) of 4.96. The pIC50 (BEN) was 4.92, the pIC50 (MCAS) was 5.34 and the pIC50 (NCI-H1573) was 4.62. It also gave a pIC50 (HCT116) of 5.28.
